The target in one experiment is PRMT5/MEP50 (Homo sapiens (Human), UniProt O14744). Kind of experiment: PRMT5 Biochemical Assay (PRMT5/MEP50 enzyme assay on peptide substrate, 3H-SAM Flashplate). Conditions: PRMT5 biochemical assay; read-out: Biochemical IC50.
Experiment [1] relates to symmetric di-methyl arginine in Z-138 cells. Kind of experiment: Z-138 Methylation Assay (In Cell Western for symmetric di-methyl arginine and DNA content). The experiment is classed as cell-based. Conditions: read-out: ICW EC50.
In the next experiment the test system is Z-138 cell line. Kind of experiment: Z-138 Proliferation Assay (Cell Titer Glo, 5 days). It is filed as cell-based. Conditions: Z-138 cells. The essentials:
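Z-138 cells at 10,000 cells/ml in RPMI 1640 with 10% heat-inactivated FBS treated with nine-point 3-fold dilutions, top final concentration 20 μM, 0.2% DMSO, for 5 days at 37° C, 5% CO2. Viability by Cell Titer Glo ATP luminescence; 50% inhibition concentration from 4-parameter fit.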

Setting [2] is: Homo sapiens, Z-138, Z-138 cells.

Where two headings read alike, the source gives them in different places. A value given as a limit tells only on which side of the number the result lay.

PRMT5/MEP50, sequence (O14744 other isoform, or with tags, fused parts or gaps): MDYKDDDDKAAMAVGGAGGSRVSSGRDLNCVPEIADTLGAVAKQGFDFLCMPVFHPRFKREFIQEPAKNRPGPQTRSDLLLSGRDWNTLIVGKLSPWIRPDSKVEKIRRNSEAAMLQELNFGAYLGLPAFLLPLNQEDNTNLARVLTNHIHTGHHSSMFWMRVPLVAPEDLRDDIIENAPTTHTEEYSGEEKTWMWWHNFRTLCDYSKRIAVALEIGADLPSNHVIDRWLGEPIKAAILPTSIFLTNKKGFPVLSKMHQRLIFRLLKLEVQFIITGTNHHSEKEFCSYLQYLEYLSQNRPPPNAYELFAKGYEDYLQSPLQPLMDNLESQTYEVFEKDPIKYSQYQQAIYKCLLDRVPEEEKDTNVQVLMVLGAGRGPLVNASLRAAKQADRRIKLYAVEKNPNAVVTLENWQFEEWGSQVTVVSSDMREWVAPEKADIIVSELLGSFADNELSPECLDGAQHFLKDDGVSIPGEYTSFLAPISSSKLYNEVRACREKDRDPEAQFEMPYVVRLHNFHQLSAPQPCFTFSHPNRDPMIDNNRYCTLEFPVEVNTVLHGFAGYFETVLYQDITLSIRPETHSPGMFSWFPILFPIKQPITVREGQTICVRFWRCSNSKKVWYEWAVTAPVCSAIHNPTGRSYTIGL
PRMT5/MEP50, sequence (Q9BQA1 other isoform, or with tags, fused parts or gaps partner): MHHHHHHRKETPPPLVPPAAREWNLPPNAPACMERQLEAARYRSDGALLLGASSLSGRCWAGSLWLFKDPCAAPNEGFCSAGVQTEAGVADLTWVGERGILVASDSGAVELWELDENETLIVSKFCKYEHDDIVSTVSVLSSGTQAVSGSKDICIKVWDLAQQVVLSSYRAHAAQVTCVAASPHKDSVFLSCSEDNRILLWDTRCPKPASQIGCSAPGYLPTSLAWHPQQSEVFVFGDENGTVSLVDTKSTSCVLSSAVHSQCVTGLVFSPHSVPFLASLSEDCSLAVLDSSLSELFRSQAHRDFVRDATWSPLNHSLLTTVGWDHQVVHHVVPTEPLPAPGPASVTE

Regarding `CN1CCN(c2cccc(OCC(=O)NC[C@@H](O)CN3CCc4ccccc4C3)c2S(=O)(=O)N(C)C)CC1` [Compound 275], the half-maximal inhibitory concentration (IC50) on PRMT5/MEP50 was less than 100 nM. In addition, the half-maximal effective concentration (EC50) is less than 100 nM in experiment [1] (setting [2]) and less than 100 nM in the experiment on Z-138 cell line (Homo sapiens, Z-138, 120 h).

On to `O=C(CCc1nc2c(Cl)cccc2[nH]1)NC[C@H](O)CN1CCc2ccccc2C1` [Compound 227], for which the IC50 on PRMT5/MEP50 is less than 100 nM. Moreover, the EC50 was less than 100 nM in experiment [1] (setting [2]) and 101 to 1000 nM in the experiment on Z-138 cell line (Homo sapiens, Z-138, 120 h).

As to `CN(C)C1CCN(S(=O)(=O)c2ccccc2OCC(=O)NC[C@@H](O)CN2CCc3ccccc3C2)C1` (stereo partly drawn) [Compound 273], at PRMT5/MEP50, the concentration for half-maximal inhibition (IC50) is less than 100 nM. Also, the half-maximal effective concentration (EC50) in experiment [1] (setting [2]) fell in the range of 101 to 1000 nM; in the experiment with Z-138 cell line (Homo sapiens, Z-138, 120 h), 10000 to 50000 nM.

Regarding “N-(3-(3,4-dihydroisoquinolin-2(1H)-yl)-2-hydroxypropyl)-2-((1-(piperidin-4-yl)-1H-indazol-5-yl)oxy)acetamide [Compound 70]”, the 50% inhibitory concentration (IC50) on PRMT5/MEP50 was less than 100 nM. Moreover, the 50% effective concentration (EC50) in experiment [1] (Z-138 cells) was 101 to 1000 nM; with Z-138 cell line, greater than 20000 nM.

Turning to `CCN1CCN(c2cccc(OCC(=O)NC[C@@H](O)CN3CCc4ccccc4C3)c2S(=O)(=O)N(C)C)CC1` [Compound 277], on PRMT5/MEP50, the IC50 is less than 100 nM. Moreover, the EC50 is less than 100 nM in experiment [1] (setting [2]) and less than 100 nM in the experiment on Z-138 cell line (Homo sapiens, Z-138, 120 h).

Turning to `Cn1cncc1-c1cccc(OCC(=O)NC[C@@H](O)CN2CCc3ccccc3C2)c1` [Compound 255], the 50% inhibitory concentration (IC50) at PRMT5/MEP50 was in the range of 101 to 1000 nM. Further, the EC50 in experiment [1] (setting [2]) was 101 to 1000 nM; with Z-138 cell line (Homo sapiens, Z-138, 120 h) it was greater than 20000 nM.

As for `O=C(COc1ccccc1N1CCNCC1)NC[C@H](O)CN1CCc2ccccc2C1` [Compound 271], the IC50 at PRMT5/MEP50 was less than 100 nM. Moreover, the half-maximal effective concentration (EC50) in experiment [1] (setting [2]) is less than 100 nM; in the experiment with Z-138 cell line (Homo sapiens, Z-138, 120 h), 1000 to 10000 nM.

For the molecule `CC1CNCCN1S(=O)(=O)c1ccccc1OCC(=O)NC[C@@H](O)CN1CCc2ccccc2C1` (stereo partly drawn) [Compound 202], on PRMT5/MEP50, the IC50 is less than 100 nM. Also, the EC50 was 101 to 1000 nM in experiment [1] (setting [2]) and 10000 to 50000 nM with Z-138 cell line (Homo sapiens, Z-138, 120 h).

With `Cc1cccc2[nH]c(CCC(=O)NC[C@H](O)CN3CCc4ccccc4C3)nc12` [Compound 250], the concentration for half-maximal inhibition (IC50) on PRMT5/MEP50 is less than 100 nM. For the same molecule, the EC50 in experiment [1] (setting [2]) was less than 100 nM; in the experiment with Z-138 cell line (Homo sapiens, Z-138, 120 h) it was 1000 to 10000 nM.

For `O=C(CCc1nc2c(F)cccc2[nH]1)NC[C@H](O)CN1CCc2ccccc2C1` [Compound 241], the half-inhibitory concentration (IC50) at PRMT5/MEP50 is less than 100 nM. Besides, the EC50 in experiment [1] (setting [2]) is less than 100 nM; in the experiment on Z-138 cell line (Homo sapiens, Z-138, 120 h) it was 101 to 1000 nM.

Consider `CC1CN(S(=O)(=O)c2ccccc2OCC(=O)NC[C@@H](O)CN2CCc3ccccc3C2)CCN1` (stereo partly drawn) [Compound 210], for which, at PRMT5/MEP50, the IC50 is 101 to 1000 nM. For the same molecule, the EC50 in experiment [1] (setting [2]) was in the range of 101 to 1000 nM; with Z-138 cell line (Homo sapiens, Z-138, 120 h), 10000 to 50000 nM.

On to `CN(C)S(=O)(=O)c1c(OCC(=O)NC[C@@H](O)CN2CCc3ccccc3C2)cccc1N1CCN(C2CC2)CC1` [Compound 278], for which the half-maximal inhibitory concentration (IC50) at PRMT5/MEP50 was less than 100 nM. The concentration for a half-maximal effect (EC50) in experiment [1] (setting [2]) is less than 100 nM; in the experiment with Z-138 cell line (Homo sapiens, Z-138, 120 h), less than 100 nM.

As for `O=C(CCc1nc2cc(F)ccc2[nH]1)NC[C@H](O)CN1CCc2ccccc2C1` [Compound 225], the IC50 on PRMT5/MEP50 is less than 100 nM. The EC50 is less than 100 nM in experiment [1] (setting [2]) and 101 to 1000 nM in the experiment on Z-138 cell line (Homo sapiens, Z-138, 120 h).

With `Cn1c(CCC(=O)NC[C@H](O)CN2CCc3ccccc3C2)nc2ccccc21` [Compound 222], the half-maximal inhibitory concentration (IC50) on PRMT5/MEP50 is 101 to 1000 nM. In addition, the concentration giving a half-maximal response (EC50) lay in the range of 101 to 1000 nM in experiment [1] (setting [2]) and 1000 to 10000 nM with Z-138 cell line (Homo sapiens, Z-138, 120 h).

With `O=C(CCc1nc(-c2ccccc2)c[nH]1)NC[C@H](O)CN1CCc2ccccc2C1` [Compound 243], at PRMT5/MEP50, the IC50 is less than 100 nM. Further, the EC50 in experiment [1] (setting [2]) was less than 100 nM; in the experiment on Z-138 cell line (Homo sapiens, Z-138, 120 h) it was 1000 to 10000 nM.

In the case of `O=C(COc1cccc(C(=O)NCCNCCO)c1)NC[C@@H](O)CN1CCc2ccccc2C1` [Compound 196], the IC50 at PRMT5/MEP50 was 101 to 1000 nM. For the same molecule, the 50% effective concentration (EC50) was greater than 1000 nM in experiment [1] (setting [2]) and greater than 20000 nM in the experiment with Z-138 cell line (Homo sapiens, Z-138, 120 h).

As to `O=C(COc1ccccc1[C@H]1CCCNC1)NC[C@@H](O)CN1CCc2ccccc2C1` [Compound 263], the IC50 at PRMT5/MEP50 lay within 101 to 1000 nM. The EC50 in experiment [1] (setting [2]) was 101 to 1000 nM; in the experiment on Z-138 cell line (Homo sapiens, Z-138, 120 h) it was 10000 to 50000 nM.

Regarding `CN(C)C1CN(S(=O)(=O)c2ccccc2OCC(=O)NC[C@@H](O)CN2CCc3ccccc3C2)CC1O` (stereo partly drawn) [Compound 216], the half-inhibitory concentration (IC50) on PRMT5/MEP50 fell in the range of 101 to 1000 nM. Besides, the EC50 is 101 to 1000 nM in experiment [1] (setting [2]) and greater than 20000 nM in the experiment on Z-138 cell line (Homo sapiens, Z-138, 120 h).

As to `Cc1ccc2[nH]c(CCC(=O)NC[C@H](O)CN3CCc4ccccc4C3)nc2c1` [Compound 224], the IC50 at PRMT5/MEP50 is less than 100 nM. Further, the EC50 in experiment [1] (setting [2]) is less than 100 nM; in the experiment on Z-138 cell line (Homo sapiens, Z-138, 120 h), 1000 to 10000 nM.

As for `CC(C)N(C)CCN(C)S(=O)(=O)c1ccccc1OCC(=O)NC[C@@H](O)CN1CCc2ccccc2C1` [Compound 260], at PRMT5/MEP50, the IC50 is less than 100 nM. The concentration for a half-maximal effect (EC50) is less than 100 nM in experiment [1] (setting [2]) and 1000 to 10000 nM in the experiment with Z-138 cell line (Homo sapiens, Z-138, 120 h).

Take `CN(CC1CCNC1)S(=O)(=O)c1ccccc1OCC(=O)NC[C@@H](O)CN1CCc2ccccc2C1` (stereo partly drawn) [Compound 219]: on PRMT5/MEP50, the IC50 was less than 100 nM. In addition, the values for the EC50 (in experiment [1] (setting [2]); with Z-138 cell line) were less than 100 nM and 101 to 1000 nM, respectively.

Regarding `CNCCN(C)S(=O)(=O)c1ccccc1OCC(=O)NC[C@@H](O)CN1CCc2ccccc2C1` [Compound 201], on PRMT5/MEP50, the IC50 is less than 100 nM. Besides, the EC50 in experiment [1] (setting [2]) is less than 100 nM; in the experiment with Z-138 cell line (Homo sapiens, Z-138, 120 h) it was 1000 to 10000 nM.

In the case of `O=C(COc1ccccc1[C@@H]1CCCNC1)NC[C@@H](O)CN1CCc2ccccc2C1` [Compound 264], the half-inhibitory concentration (IC50) on PRMT5/MEP50 lay within 101 to 1000 nM. The EC50 in experiment [1] (setting [2]) was greater than 1000 nM; with Z-138 cell line (Homo sapiens, Z-138, 120 h) it was 10000 to 50000 nM.

Consider `O=C(CCc1cn2ccccc2n1)NC[C@H](O)CN1CCc2ccccc2C1` [Compound 229], for which the 50% inhibitory concentration (IC50) at PRMT5/MEP50 was 101 to 1000 nM. In addition, the EC50 in experiment [1] (setting [2]) was 101 to 1000 nM; with Z-138 cell line (Homo sapiens, Z-138, 120 h), 10000 to 50000 nM.

Consider `CS(=O)(=O)Nc1cccc(OCC(=O)NC[C@@H](O)CN2CCc3ccccc3C2)c1C1CCCNC1` (stereo partly drawn) [Compound 265], for which the half-maximal inhibitory concentration (IC50) at PRMT5/MEP50 was in the range of 101 to 1000 nM. Also, the EC50 in experiment [1] (setting [2]) is greater than 1000 nM; with Z-138 cell line (Homo sapiens, Z-138, 120 h), greater than 20000 nM.

Values taken from patent publication US9745291B2, “PRMT5 inhibitors containing a dihydro- or tetrahydroisoquinoline and uses thereof” (Epizyme, Inc., priority 2012, dated 2017).
